Reference: patent publication US20230332232A1, “COMPOSITIONS AND METHODS FOR DIAGNOSING AND TREATING A DYSTONIA” (Duke University, priority 2020, published 2023)

System: DYT1 knockin (Tor1a^delGAG/+) murine embryonic fibroblasts (MEFs)
Test: microRNA-seq of EVs from DYT1 MEFs treated with drug, compared with non-treated DYT1 MEFs
Assay type: cell-based, mouse
Conditions: for Sal Direction Opposite ISRIB?: EVs of DYT1 (Het) MEFs
Procedure: In addition to proteomic analysis, total RNA-seq and microRNA-seq was performed on RNA isolated in parallel from the EV samples of Cohort 2. As with the proteomic analysis, one biological replicate was prepared from 3 distinct biological clonal cell lines for each genotype. Here, EVs were isolated from conditioned cell culture media by 18 hour ultracentrifugation at 100,000 g. RNA was extracted using the Qiagen miRNeasy Micro Kit (Cat. No. 217084) according to the manufacturer's protocol. Two RNA fractions were extracted from each sample, one enriched in coding and non-coding RNA species>200 nt (“Total RNA” fraction) and one enriched for small RNAs<200 nt (“miRNA” fraction). RNA samples were then submitted to the Duke Sequencing and Genomic Technologies shared resource for further quality control and sequencing. Samples were assessed for concentration and integrity by Qubit and Fragment Analyzer. The miRNA fractions were 4.16 ng/μL-47.57 ng/μL and total RNA fractions were 3.8 ng/μL-43.6 ng/μL. The small RNA library was prepared using the QIAseq miRNA Library Kit (Cat No./ID: 331505) and sequenced on the Illumina NextSeq 500 High-Output platform with 75 bp single-reads. The total RNA library was prepared using the Illumina TruSeq Stranded Total RNA-seq Kit with Ribozero Gold ribosomal RNA reduction and sequenced on the Illumina NovaSeq 6000 S1 platform with 100 bp paired-end reads. Sequencer lane pooling and read depth are attached in the Excel data summary (See “RNA QC” Tab). Data processing and analysis were performed in collaboration with the Duke Genomic Analysis and Bioinformatics shared resource. RNA-seq data was processed using the TrimGalore toolkit (http://www.bioinformatics.babraham.ac.uk/projects/trim_galore), which employs Cutadapt(Martin M. (2011) EMBnet.journal. 17(1):10-12) to trim low quality bases and Illumina sequencing adapters from the 3' end of the reads. Only reads that were 20 nt or longer after trimming were kept for further analysis. Reads were mapped to the mouse genome and transcriptome ([…], et al. (2012) Nucleic Acids Res. 40(Database issue):[…]-97) using the STAR RNA-seq alignment tool (Dobin A, et al. (2013). Bioinformatics. 29(1):15-21). If the reads mapped to a single genomic location, then they were kept for subsequent analysis. Gene counts were compiled using the HTSeq tool (http://www-huber.embl.de/users/anders/HTSeq/). Only genes that had at least 10 reads in any given library were used in subsequent analysis. Normalization and differential expression was carried out using the DESeq26 Bioconductor (Huber W, et al. (2015) Nat Methods. 12(2):115-121) package with the R statistical programming environment (www.r-project.org). […] 694 miRNAs were initially examined with respect to QC, genotype, RTV effects, and ISRIB effects. This subset was the “Full miRNA” subset. FIG. 9A and FIG. 9B show the RTV effect on EV composition in DYT1 cells compared to WT cells for 279 miRNAs, respectively. […] Beginning with the 694 miRNAs in the “Full miRNA” subset, more than 60 molecules were detected in either WT cells or DYT1 cells (WT or Het UMI>60). […] The candidate miRNAs were ranked by the sum of genotype-dependent absolute Z-scores and RTV-induced absolute Z-scores (Abs Z Score Sum (Geno+RTV)). This subset was the “miRNA-Ritonavir Therapeutic Efficacy” subset and contained 201 miRNAs.

## O=C(/C=C/c1ccccc1)NC(NC(=S)Nc1cccc2cccnc12)C(Cl)(Cl)Cl (stereo not drawn) [SAL, Salubrinal]
mmu-miR-181a-5p
  SALvHet Z Score: −0.23
mmu-miR-181b-5p
  SALvHet Z Score: −0.32
mmu-miR-181c-5p
  SALvHet Z Score: 0.26
mmu-miR-182-5p
  SALvHet Z Score: 0.01
  Sal Direction Opposite ISRIB?: yes
mmu-miR-183-5p
  SALvHet Z Score: −0.06
mmu-miR-185-5p
  SALvHet Z Score: 0.15
mmu-miR-186-5p
  SALvHet Z Score: 0.00
mmu-miR-187-3p
  SALvHet Z Score: 0.30
  Sal Direction Opposite ISRIB?: yes
mmu-miR-188-5p
  SALvHet Z Score: −0.05
mmu-miR-190b-5p
  SALvHet Z Score: 0.15
mmu-miR-191-5p
  SALvHet Z Score: 0.04
mmu-miR-192-5p
  SALvHet Z Score: 0.09
  Sal Direction Opposite ISRIB?: yes
mmu-miR-194-5p
  SALvHet Z Score: 0.18
mmu-miR-199a-3p
  SALvHet Z Score: −0.10
mmu-miR-199b-3p
  SALvHet Z Score: −0.10
mmu-miR-206-3p
  SALvHet Z Score: −0.27
mmu-miR-214-5p
  SALvHet Z Score: 0.04
mmu-miR-219a-5p
  SALvHet Z Score: 0.34
mmu-miR-223-3p
  SALvHet Z Score: −0.01
mmu-miR-224-5p
  SALvHet Z Score: −0.27
mmu-miR-296-3p
  SALvHet Z Score: 0.05
  Sal Direction Opposite ISRIB?: yes
mmu-miR-298-5p
  SALvHet Z Score: 0.16
  Sal Direction Opposite ISRIB?: yes
mmu-miR-299a-3p
  SALvHet Z Score: 0.39
mmu-miR-301a-3p
  SALvHet Z Score: 0.35
mmu-miR-301b-3p
  SALvHet Z Score: 0.01
mmu-miR-320-3p
  SALvHet Z Score: −0.21
mmu-miR-322-5p
  SALvHet Z Score: −0.07
mmu-miR-324-3p
  SALvHet Z Score: 0.16
mmu-miR-335-Sp
  SALvHet Z Score: −0.35
mmu-miR-340-5p
  SALvHet Z Score: 0.31
mmu-miR-344-3p
  SALvHet Z Score: 0.44
  Sal Direction Opposite ISRIB?: yes
mmu-miR-350-3p
  SALvHet Z Score: 0.08
mmu-miR-361-5p
  SALvHet Z Score: −0.15
mmu-miR-362-3p
  SALvHet Z Score: 0.47
  Sal Direction Opposite ISRIB?: yes
mmu-miR-362-5p
  SALvHet Z Score: −0.10
mmu-miR-378a-3p
  SALvHet Z Score: −0.12
mmu-miR-450a-5p
  SALvHet Z Score: 0.09
mmu-miR-450b-3p
  SALvHet Z Score: −0.29
mmu-miR-451a
  SALvHet Z Score: 0.38
mmu-miR-483-5p
  SALvHet Z Score: −1.22
mmu-miR-500-3p
  SALvHet Z Score: 0.10
mmu-miR-503-3p
  SALvHet Z Score: −0.70
mmu-miR-532-5p
  SALvHet Z Score: −0.06
mmu-miR-542-3p
  SALvHet Z Score: 0.33
mmu-miR-542-5p
  SALvHet Z Score: 0.39
  Sal Direction Opposite ISRIB?: yes
mmu-miR-582-3p
  SALvHet Z Score: −0.45
mmu-miR-652-3p
  SALvHet Z Score: 0.34
mmu-miR-671-5p
  SALvHet Z Score: 0.26
  Sal Direction Opposite ISRIB?: yes
mmu-miR-700-3p
  SALvHet Z Score: 0.16
mmu-miR-708-5p
  SALvHet Z Score: 0.58
mmu-miR-872-5p
  SALvHet Z Score: 0.19
mmu-miR-1291
  SALvHet Z Score: −0.06
mmu-miR-1843a-5p
  SALvHet Z Score: 0.07
mmu-miR-3102-3p
  SALvHet Z Score: 0.35
mmu-miR-3535
  SALvHet Z Score: −0.66
mmu-miR-5121
  SALvHet Z Score: 0.22
  Sal Direction Opposite ISRIB?: yes
mmu-miR-30h-5p
  Sal Direction Opposite ISRIB?: yes
mmu-miR-30d-5p
  SALvHet Z Score: −0.11
mmu-miR-344d-3p
  SALvHet Z Score: −1.00
